Earlier results on 1 substance are cited in patent US5231002A, “Synthetic SCM-active cancer recognition peptides” (priority 1990, dated 1993).

Data set [1] relates to lymphocytes from multiple sclerosis. The note with it: lymphocytes from multiple sclerosis patients.
The test system of data set [2] is potentially SCM-responding lymphocytes from donors with malignant diseases.

Regarding CaBP, in data set [1], the “response in the SCM test (in words)” value is reported as “do not respond”. Besides, the “effectiveness as cancer-associated antigen in the SCM test” value in data set [2] (known cancer-associated antigens) was “effective in the SCM test”. The “time until response of lymphocytes is lost after surgical removal of malignancy” value in data set [2] (malignancies of breast or colon surgically removed) was not above 24 h.
